Experimental data: patent US6147097A, “Imidazole derivatives as anti-HIV agents” (Shionogi & Co., Ltd., priority 1994, dated 2000)
≈ marks a conversion by molar mass, not a printed value. Like-named read-outs stand apart in the source and are kept apart here.

Key:
[1] = target: T1, purified recombinant HIV-1 reverse transcriptase (Human immunodeficiency virus type 1 group M subtype B, UniProt P04585); assay: reverse transcriptase inhibition, poly(rA)/(dT) template primer, [3H]dTTP uptake; assay type: biochemical
T1 construct: purified recombinant HIV-1 reverse transcriptase; made in house; host or cells: Escherichia coli
In short: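 Inhibition reported as percent reduction of [3H]dTTP incorporation relative to solvent control, after 1 h at 37 °C at pH 8.3. Recombinant RT from E. coli, poly(rA) template with oligo(dT) primer, 4 μM unlabeled dTTP as substrate; product collected on DEAE filter mats.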

[2] = cytotoxicity in MT-4 cells (MTT, culture medium in place of HIV); assay type: cell-based; conditions: human
In short: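 MT-4 cells (3.5×10^4 per well) exposed to diluted compound with culture medium added instead of HIV, 5 days at 37° C in CO2. MTT added for 1 h, formazan dissolved in Triton X-100/acidified isopropanol. OD read at 560 nm (690 nm reference) and compared with control.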

HIV (HTLV-IIIB strain) = assay: microbe, parasite or virus in culture; assay type: cell-based; conditions: Human immunodeficiency virus 1, IIIB, MT4, 120 h
In short: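 MT-4 cells (3.5×10^4 per well) were infected with HIV at 60 pfu per well in the presence of diluted compound and incubated for 5 days at 37° C. Surviving cells were then measured by MTT reduction, with the formazan dissolved in acidified isopropanol containing Triton X-100.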

[3] = MT-4 cells, 60 pfu HIV per well, 37° C., 5 days, MTT, Tables 1 and 2, read-out: EC50
[4] = MT-4 cells, no virus, 37° C., 5 days, MTT, Table 3, read-out: CC50

## CC(C)c1nc(CCO)n(Cc2ccncc2)c1Sc1cc(Cl)cc(Cl)c1 [Compound 123b, 2-[5-(3,5-dichlorophenylthio)-4-isopropyl-1-(pyridin-4-ylmethyl)-1H-imidazol-2-yl]ethanol]
[1]
  IC50: 0.355 µM
[2]; mt-4 cells
  CC50 at 120 h: 12.5 to 25 µg/mL (≈ 29.6 to 59.2 µM)
HIV (HTLV-IIIB strain); [3]
  EC50: 0.003 µg/mL (≈ 0.0071 µM)

## CC(C)c1nc(CO)n(C)c1Cc1cccc(Cl)c1 [Compound I-102, [5-(3-chlorobezyl)-4-isopropyl-1-methyl-1H-imidazol-2-yl]methanol]
[1]
  IC50: 86.4 µM
[2]; [4]
  CC50 at 120 h: 1 to 10 µg/mL (≈ 3.59 to 35.9 µM)
HIV (HTLV-IIIB strain); [3]
  EC50: 0.5 to 1 µg/mL (≈ 1.79 to 3.59 µM)

## CCOC(=O)Cn1c(CCOCc2ccccc2)nc(C(C)C)c1Sc1cc(Cl)cc(Cl)c1 [Compound 130c]
[1]
  IC50: > 197 µM
[2]; mt-4 cells
  CC50 at 120 h: 12.5 µg/mL (≈ 24.6 µM)
HIV (HTLV-IIIB strain); [3]
  EC50: 0.5 µg/mL (≈ 0.985 µM)

## CC(C)c1nc(CO)n(C)c1Sc1cccc([N+](=O)[O-])c1 [Compound I-14, [4-isopropyl-1-methyl-5-(3-nitrophenylthio)-1H-imidazol-2-yl]methanol]
[1]
  IC50: 4.23 µM
[2]; [4]
  CC50 at 120 h: 12.5 to 25 µg/mL (≈ 40.7 to 81.3 µM)
HIV (HTLV-IIIB strain); [3]
  EC50: 0.03 µg/mL (≈ 0.0976 µM)

## CC(C)c1nc(CN)n(CC(F)(F)F)c1Sc1cc(Cl)cc(Cl)c1 [Compound I-76, 2-aminomethyl-5-(3,5-dichlorophenylthio)-4-isopropyl-1-(2,2,2-trifluoroethyl)-1H-imidazole]
[1]
  IC50: 8.79 µM
[2]; [4]
  CC50 at 120 h: 6.3 to 12.5 µg/mL (≈ 15.8 to 31.4 µM)
HIV (HTLV-IIIB strain); [3]
  EC50: 0.016 µg/mL (≈ 0.0402 µM)

## CC(C)c1nc(CCCO)n(CCO)c1Sc1cc(Cl)cc(Cl)c1 [Compound 137d, 3-(5-(3,5-dichlorophenylthio)-1-(2-hydroxyethyl)-4-isopropyl-1H-imidazol-2-yl)-propan-1-ol]
[1]
  IC50: 6.68 µM
[2]; mt-4 cells
  CC50 at 120 h: 6.3 to 12.5 µg/mL (≈ 16.2 to 32.1 µM)
HIV (HTLV-IIIB strain); [3]
  EC50: < 0.008 µg/mL

## CC(C)c1nc(CCO)n(Cc2ccc([N+](=O)[O-])cc2)c1Sc1cc(Cl)cc(Cl)c1 [Compound 126a, 5-(3,5-dichlorophenylthio)-2-(2-hydroxyethyl)-4-isopropyl-1-p-nitrobenzyl-1H-imidazole]
[1]
  IC50: 2.59 µM
[2]; mt-4 cells
  CC50 at 120 h: 6.3 µg/mL (≈ 13.5 µM)
HIV (HTLV-IIIB strain); [3]
  EC50: 0.008 µg/mL (≈ 0.0172 µM)

## CC(C)c1nc(CCOC(N)=O)n(Cc2ccncc2)c1Sc1cc(Cl)cc(Cl)c1 [Compound I-138, 2-(2-carbamoyloxyethyl)-5-(3,5-dichlorophenylthio)-4-isopropyl-1-(pyridin-4-yl)methyl-1H-imidazole]
[1]
  IC50: 3.22 µM
[2]; mt-4 cells
  CC50 at 120 h: 12.5 µg/mL (≈ 26.9 µM)
HIV (HTLV-IIIB strain); [3]
  EC50: 0.008 µg/mL (≈ 0.0172 µM)

## CC(C)c1nc(CO)n(CC(C)(C)O)c1Sc1cc(Cl)cc(Cl)c1 [Compound I-153, 5-(3,5-dichlorophenylthio)-2-hydroxymethyl-1-(2-hydroxy-2-methylpropyl)-4-isopropyl-1H-imidazole]
[1]
  IC50: 25.7 µM
[2]; mt-4 cells
  CC50 at 120 h: 12.5 µg/mL (≈ 32.1 µM)
HIV (HTLV-IIIB strain); [3]
  EC50: 0.016 µg/mL (≈ 0.0411 µM)

## CC(C)c1nc(COC(N)=O)n(CC(F)(F)F)c1Sc1cc(Cl)cc(Cl)c1 [Compound I-55, 2-carbamoyloxymethyl-5-(3,5-dichlorophenylthio)-4-isopropyl-1-(1,1,1-trifluoroethyl)-1H-imidazole]
[1]
  IC50: 5.65 µM
[2]; [4]
  CC50 at 120 h: 10 to 100 µg/mL (≈ 22.6 to 226 µM)
HIV (HTLV-IIIB strain); [3]
  EC50: 0.008 µg/mL (≈ 0.0181 µM)

## CC(C)c1nc(CN)n(C)c1Sc1cc(Cl)cc(Cl)c1.O=C(O)C(=O)O [Compound I-66, 2-aminomethyl-5-(3,5-dichlorophenylthio)-4-isopropyl-1-methylimidazole oxalate]
[1]
  IC50: 1.64 µM
[2]; [4]
  CC50 at 120 h: 6.3 to 12.5 µg/mL
HIV (HTLV-IIIB strain); [3]
  EC50: 0.016 µg/mL

## CC(C)c1nc(CCCOC(N)=O)n(C)c1Sc1cc(Cl)cc(Cl)c1 [Compound I-148, 2-(3-carbamoyloxypropyl)-5-(3,5-dichlorophenylthio)-4-isopropyl-1-methyl-1H-imidazole]
[1]
  IC50: 0.895 µM
[2]; mt-4 cells
  CC50 at 120 h: 6.3 to 12.5 µg/mL (≈ 15.7 to 31.1 µM)
HIV (HTLV-IIIB strain); [3]
  EC50: 0.005 to 0.01 µg/mL (≈ 0.0124 to 0.0249 µM)

## Cc1nc(C(C)C)c(Sc2cc(Cl)cc(Cl)c2)n1C [Compound I-1, 5-(3,5-dichlorophenylthio)-1,2-dimethyl-4-isopropyl-1H-imidazole]
[1]
  IC50: 3.81 µM
[2]; [4]
  CC50 at 120 h: 6.3 to 12.5 µg/mL (≈ 20 to 39.6 µM)
HIV (HTLV-IIIB strain); [3]
  EC50: 0.008 µg/mL (≈ 0.0254 µM)

## CNCc1nc(C(C)C)c(Sc2cc(Cl)cc(Cl)c2)n1C [Compound I-85, 5-(3,5-dichlorophenylthio)-4-isopropyl-1-methyl-2-methylaminomethyl-1H-imidazole]
[1]
  IC50: 7.55 µM
[2]; [4]
  CC50 at 120 h: 1 to 10 µg/mL (≈ 2.9 to 29 µM)
HIV (HTLV-IIIB strain); [3]
  EC50: 0.13 µg/mL (≈ 0.378 µM)

## CC(C#N)c1nc(COC(N)=O)n(C)c1Sc1cccc(Cl)c1 (stereo not drawn) [Compound I-98, 2-[2-carbamoyloxymethyl-5-(3-chlorophenylthio)-1-methyl-1H-imidazol-4-yl]propiononitrile]
[1]
  IC50: 105 µM
[2]; [4]
  CC50 at 120 h: 10 to 100 µg/mL (≈ 28.5 to 285 µM)
HIV (HTLV-IIIB strain)
  EC50: 1 µg/mL (≈ 2.85 µM)

## CCn1c(COCCOC(N)=O)nc(C(C)C)c1Sc1cc(Cl)cc(Cl)c1 [Compound I-63, 2-(2-carbamoyloxyethoxy)methyl-5-(3,5-dichlorophenylthio)-1-ethyl-4-isopropyl-1H-imidazole]
[1]
  IC50: 10.9 µM
[2]; [4]
  CC50 at 120 h: 12.5 µg/mL (≈ 28.9 µM)
HIV (HTLV-IIIB strain); [3]
  EC50: 0.25 µg/mL (≈ 0.578 µM)

## CC(C)c1nc(CN)n(Cc2ccccc2)c1Sc1cc(Cl)cc(Cl)c1 [Compound I-70, 2-aminomethyl-1-benzyl-5-(3,5-dichlorophenylthio)-4-isopropylimidazole]
[1]
  IC50: 4.43 µM
[2]; [4]
  CC50 at 120 h: 6.3 to 12.5 µg/mL (≈ 15.5 to 30.8 µM)
HIV (HTLV-IIIB strain); [3]
  EC50: 0.03 µg/mL (≈ 0.0738 µM)

## Cc1cc(C)cc(Sc2c(C(C)C)nc(C)n2C)c1 [Compound I-2, 5-(3,5-dimethylphenylthio)-1,2-dimethyl-4-isopropyl-1H-imidazole]
[1]
  IC50: 7.65 µM
[2]; [4]
  CC50 at 120 h: 25 µg/mL (≈ 91.1 µM)
HIV (HTLV-IIIB strain); [3]
  EC50: 0.008 µg/mL (≈ 0.0292 µM)

## CC(C)c1nc(CN)n(Cc2ccncc2)c1Sc1cc(Cl)cc(Cl)c1 [I-95', 2-aminomethyl-5-(3,5-dichlorophenylthio)-4-isopropyl-1-(pyridin-4-yl)methyl-1H-imidazole]
[1]
  IC50: 1.18 µM
[2]; [4]
  CC50 at 120 h: 6.3 to 12.5 µg/mL (≈ 15.5 to 30.7 µM)
HIV (HTLV-IIIB strain); [3]
  EC50: 0.005 µg/mL (≈ 0.0123 µM)

## C=CCn1c(COC(N)=O)nc(C(C)C)c1Sc1cccc([N+](=O)[O-])c1 [Compound I-48, 1-allyl-2-carbamoyloxymethyl-4-isopropyl-5-(3-nitrophenylthio)-1H-imidazole]
[1]
  IC50: 1.2 µM
[2]; [4]
  CC50 at 120 h: 25 to 50 µg/mL (≈ 66.4 to 133 µM)
HIV (HTLV-IIIB strain); [3]
  EC50: 0.016 µg/mL (≈ 0.0425 µM)

## CC(C)c1nc(CCCO)n(Cc2ccncc2)c1Sc1cc(Cl)cc(Cl)c1 [Compound 137c, 3-(5-(3,5-dichlorophenylthio)-4-isopropyl-1-(pyridin-4-ylmethyl)-1H-imidazol-2-yl)-propan-1-ol]
[1]
  IC50: 0.71 µM
[2]; mt-4 cells
  CC50 at 120 h: 6.3 to 12.5 µg/mL (≈ 14.4 to 28.6 µM)
HIV (HTLV-IIIB strain); [3]
  EC50: 0.003 to 0.005 µg/mL (≈ 0.00687 to 0.0115 µM)

## CC(C)c1nc(CN)n(C)c1Cc1cc(Cl)cc(Cl)c1 [Compound I-101, 2-aminomethyl-5-(3,5-dichlorobenzyl)-4-isopropyl-1-methyl-1H-imidazole]
[1]
  IC50: 80.7 µM
[2]; [4]
  CC50 at 120 h: 10 to 100 µg/mL (≈ 32 to 320 µM)
HIV (HTLV-IIIB strain); [3]
  EC50: 1 µg/mL (≈ 3.2 µM)

## CC(C)c1nc(CNC(N)=O)n(C)c1Sc1cc(Cl)cc(Cl)c1 [Compound I-90, 5-(3,5-dichlorophenylthio)-4-isopropyl-1-methyl-2-ureidomethyl-1H-imidazole]
[1]
  IC50: 6.7 µM
[2]; [4]
  CC50 at 120 h: 10 to 100 µg/mL (≈ 26.8 to 268 µM)
HIV (HTLV-IIIB strain); [3]
  EC50: 0.13 µg/mL (≈ 0.348 µM)

## CC(C)c1nc(CO)n(CCc2ccccn2)c1Sc1cc(Cl)cc(Cl)c1 [Compound 112a, 5-(3,5-dichlorophenylthio)-4-isopropyl-2-hydroxymethyl-1-(2-(2-pyridyl)ethyl)-1H-imidazole]
[1]
  IC50: 2.27 µM
[2]; mt-4 cells
  CC50 at 120 h: 6.3 µg/mL (≈ 14.9 µM)
HIV (HTLV-IIIB strain); [3]
  EC50: 0.008 µg/mL (≈ 0.0189 µM)

## CC(C)c1nc(CO)n(C)c1Sc1cc(Cl)cc(Cl)c1 [Compound I-8, [5-(3,5-dichlorophenylthio)-4-isopropyl-1-methyl-1H-imidazol-2-yl]methanol]
[1]
  IC50: 3.02 µM
[2]; [4]
  CC50 at 120 h: 12.5 µg/mL (≈ 37.7 µM)
HIV (HTLV-IIIB strain); [3]
  EC50: 0.016 µg/mL (≈ 0.0483 µM)

## CC(C)c1nc(CCO)n(CCO)c1Sc1cc(Cl)cc(Cl)c1 [Compound 131c, 2-(5-(3,5-dichlorophenylthio)-2-(2-hydroxyethyl)-4-isopropyl-1H-imidazol-1-yl)ethanol]
[1]
  IC50: 2.58 µM
[2]; mt-4 cells
  CC50 at 120 h: 6.3 to 12.5 µg/mL (≈ 16.8 to 33.3 µM)
HIV (HTLV-IIIB strain); [3]
  EC50: < 0.008 µg/mL

## CCn1c(CN)nc(C(C)C)c1Sc1cccc(Cl)c1 [Compound I-73, 2-aminomethyl-5-(3-chlorophenylthio)-1-ethyl-4-isopropylimidazole]
[1]
  IC50: 0.807 µM
[2]; mt-4 cells
  CC50 at 120 h: 6.3 µg/mL (≈ 20.3 µM)
HIV (HTLV-IIIB strain); [3]
  EC50: 0.016 µg/mL (≈ 0.0516 µM)

## CC(C)c1nc(CO)n(Cc2ccccc2N)c1Sc1cc(Cl)cc(Cl)c1 [Compound I-119, 1-(o-aminobenzyl)-5-(3,5-dichlorophenylthio)-2-hydroxymethyl-4-isopropyl-1H-imidazole]
[1]
  IC50: 7.81 µM
[2]; mt-4 cells
  CC50 at 120 h: 3.1 µg/mL (≈ 7.34 µM)
HIV (HTLV-IIIB strain); [3]
  EC50: 0.13 to 0.25 µg/mL (≈ 0.308 to 0.592 µM)
